Starred links: 1 amine or outer side, 2 acyl side, 3 side chain; linkers in the order of their positions; H or OH if unused. Non-standard residues stand in square brackets, D forms with d. Residues, ends and D or L forms follow the SMILES beside them. Groups on a side chain read outwards from the residue. *: point of attachment. C18 diacid = O=C(O)CCCCCCCCCCCCCCCCC(=O)*; C17 diacid = O=C(O)CCCCCCCCCCCCCCCC(=O)*; γGlu = O=C(O)[C@H](CCC(=O)[*:2])N[*:1]; NMeY = CN[C@@H](Cc1ccc(O)cc1)C(=O)O; AEEA = NCCOCCOCC(=O)O; Aib = CC(C)(N)C(=O)O
Assay: Solubility in phosphate buffer pH 7.4
Method in brief: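 3 mg of peptide treated with 100 μL portions of 200 mM phosphate buffer pH 7.4, sonicating/vortexing up to 1 min, with further buffer added until fully dissolved. Solubility then quantified by HPLC.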

[1] = pH 7.4, aqueous buffer, pH 7.4 Phosphate Buffer - Solubility, 200 mM Phosphate buffer pH 7.4

Structure (SMILES) | solubility [1] [mg/mL] | solubility (pH 7.4) [mg/mL] | solubility (pH 7.4, aqueous buffer) [mg/mL]
CC[C@H](C)[C@H](NC(=O)[C@H](CO)NC(=O)[C@H](Cc1ccc(O)cc1)NC(=O)[C@H](CC(=O)O)NC(=O)[C@H](CO)NC(=O)[C@@H](NC(=O)[C@H](Cc1ccccc1)NC(=O)[C@@H](NC(=O)CNC(=O)[C@H](CCC(=O)O)NC(=O)C(C)(C)NC(=O)[C@H](Cc1ccc(O)cc1)NC)[C@@H](C)O)[C@@H](C)CC)C(=O)N[C@@H](C)C(=O)N[C@@H](CCCCNC(=O)CNC(=O)CNC(=O)CNC(=O)CNC(=O)CNC(=O)CCCCCCCCCCCCCCCCC(=O)O)C(=O)N[C@@H](CC(=O)O)C(=O)N[C@@H](CCCNC(=N)N)C(=O)NC(C)(C)C(=O)N[C@@H](C)C(=O)N[C@@H](CCC(N)=O)C(=O)NC(C)(C)C(=O)N[C@@H](CC(=O)O)C(=O)N[C@@H](Cc1ccccc1)C(=O)N[C@H](C(=O)N[C@@H](CC(N)=O)C(=O)N[C@@H](Cc1c[nH]c2ccccc12)C(=O)N[C@@H](CC(C)C)C(=O)N[C@@H](CC(C)C)C(=O)N[C@@H](C)C(=O)N[C@@H](CCC(N)=O)C(=O)N[C@@H](CCCNC(=N)N)C(=O)N1CCC[C@H]1C(=O)N[C@@H](CO)C(=O)N[C@@H](CO)C(=O)NCC(=O)N[C@@H](C)C(=O)N1CCC[C@H]1C(=O)N1CCC[C@H]1C(=O)N1CCC[C@H]1C(=O)N[C@@H](CO)C(N)=O)C(C)C [Compound 274] | ≥ 10 |  | 
CC[C@H](C)[C@H](NC(=O)[C@H](Cc1ccccc1)NC(=O)[C@@H](NC(=O)CNC(=O)[C@H](CCC(=O)O)NC(=O)C(C)(C)NC(=O)[C@@H](N)Cc1ccc(O)cc1)[C@@H](C)O)C(=O)N[C@@H](CO)C(=O)N[C@@H](CC(=O)O)C(=O)N[C@@H](Cc1ccc(O)cc1)C(=O)N[C@@H](CO)C(=O)N[C@H](C(=O)NC(C)(C)C(=O)N[C@@H](CC(C)C)C(=O)N[C@@H](CC(=O)O)C(=O)N[C@@H](CCCCN)C(=O)N[C@@H](C)C(=O)N[C@@H](CCCCNC(=O)COCCOCCNC(=O)COCCOCCNC(=O)CC[C@H](NC(=O)CCCCCCCCCCCCCCCCC(=O)O)C(=O)O)C(=O)N[C@@H](CCC(N)=O)C(=O)N[C@@H](C)C(=O)N[C@@H](CC(=O)O)C(=O)N[C@@H](Cc1ccccc1)C(=O)N[C@H](C(=O)N[C@@H](CC(N)=O)C(=O)N[C@@H](Cc1c[nH]c2ccccc12)C(=O)N[C@@H](CC(C)C)C(=O)N[C@@H](CC(C)C)C(=O)N[C@@H](C)C(=O)N[C@@H](CCC(N)=O)C(=O)N[C@@H](CCCNC(=N)N)C(=O)NCC(=O)O)C(C)C)[C@@H](C)CC [Compound 171] (H-Y[Aib]EGTFISDYSI[Aib]LDKAK([AEEA-AEEA-γGlu-C18 diacid])QADFVNWLLAQRG-OH) |  | ≥ 15 | ≥ 30
CC[C@H](C)[C@H](NC(=O)[C@H](Cc1ccccc1)NC(=O)[C@@H](NC(=O)CNC(=O)[C@H](CCC(=O)O)NC(=O)C(C)(C)NC(=O)[C@H](Cc1ccc(O)cc1)NC)[C@@H](C)O)C(=O)N[C@@H](CO)C(=O)N[C@@H](CC(=O)O)C(=O)N[C@@H](Cc1ccc(O)cc1)C(=O)N[C@@H](CO)C(=O)N[C@H](C(=O)NC(C)(C)C(=O)N[C@@H](CCCCNC(=O)COCCOCCNC(=O)COCCOCCNC(=O)CC[C@H](NC(=O)CCCCCCCCCCCCCCCC(=O)O)C(=O)O)C(=O)N[C@@H](CC(=O)O)C(=O)N[C@@H](CCCNC(=N)N)C(=O)NC(C)(C)C(=O)N[C@@H](C)C(=O)N[C@@H](CCC(N)=O)C(=O)NC(C)(C)C(=O)N[C@@H](CC(N)=O)C(=O)N[C@@H](Cc1ccccc1)C(=O)N[C@H](C(=O)N[C@@H](CC(N)=O)C(=O)N[C@@H](Cc1c[nH]c2ccccc12)C(=O)N[C@@H](CC(C)C)C(=O)N[C@@H](CC(C)C)C(=O)N[C@@H](C)C(=O)N[C@@H](CCC(N)=O)C(=O)N[C@@H](CCCNC(=N)N)C(=O)N1CCC[C@H]1C(=O)N[C@@H](CO)C(=O)N[C@@H](CO)C(=O)NCC(=O)N[C@@H](C)C(=O)N1CCC[C@H]1C(=O)N1CCC[C@H]1C(=O)N1CCC[C@H]1C(=O)N[C@@H](CO)C(N)=O)C(C)C)[C@@H](C)CC [Compound 263] (H-[NMeY][Aib]EGTFISDYSI[Aib]K([AEEA-AEEA-γGlu-C17 diacid])DR[Aib]AQ[Aib]NFVNWLLAQRPSSGAPPPS-NH2) | ≥ 7.5 |  | 
CC[C@H](C)[C@H](NC(=O)[C@H](CO)NC(=O)[C@H](Cc1ccc(O)cc1)NC(=O)[C@H](CC(=O)O)NC(=O)[C@H](CO)NC(=O)[C@@H](NC(=O)[C@H](Cc1ccccc1)NC(=O)[C@@H](NC(=O)CNC(=O)[C@H](CCC(=O)O)NC(=O)C(C)(C)NC(=O)[C@H](Cc1ccc(O)cc1)NC)[C@@H](C)O)[C@@H](C)CC)C(=O)N[C@@H](C)C(=O)N[C@@H](CC(C)C)C(=O)N[C@@H](CC(=O)O)C(=O)N[C@@H](CCCCN)C(=O)N[C@@H](C)C(=O)N[C@@H](C)C(=O)N[C@@H](CCC(N)=O)C(=O)NC(C)(C)C(=O)N[C@@H](CCCCNC(=O)COCCOCCNC(=O)COCCOCCNC(=O)CC[C@H](NC(=O)CC[C@H](NC(=O)CCCCCCCCCCCCCCCCC(=O)O)C(=O)O)C(=O)O)C(=O)N[C@@H](Cc1ccccc1)C(=O)N[C@H](C(=O)N[C@@H](CC(N)=O)C(=O)N[C@@H](Cc1c[nH]c2ccccc12)C(=O)N[C@@H](CC(C)C)C(=O)N[C@@H](CC(C)C)C(=O)N[C@@H](C)C(=O)N[C@@H](CCC(N)=O)C(=O)N[C@@H](CCCNC(=N)N)C(=O)NCC(=O)O)C(C)C [Compound 176] (H-[NMeY][Aib]EGTFISDYSIALDKAAQ[Aib]K([AEEA-AEEA-γGlu-γGlu-C18 diacid])FVNWLLAQRG-OH) |  | ≥ 15 | ≥ 30
CC[C@H](C)[C@H](NC(=O)[C@H](CO)NC(=O)[C@H](Cc1ccc(O)cc1)NC(=O)[C@H](CC(=O)O)NC(=O)[C@H](CO)NC(=O)[C@@H](NC(=O)[C@H](Cc1ccccc1)NC(=O)[C@@H](NC(=O)CNC(=O)[C@H](CCC(=O)O)NC(=O)C(C)(C)NC(=O)[C@H](Cc1ccc(O)cc1)NC)[C@@H](C)O)[C@@H](C)CC)C(=O)N[C@@H](C)C(=O)N[C@@H](CC(C)C)C(=O)N[C@@H](CC(=O)O)C(=O)N[C@@H](CCCNC(=N)N)C(=O)NC(C)(C)C(=O)N[C@@H](CCCCNC(=O)COCCOCCNC(=O)COCCOCCNC(=O)CC[C@H](NC(=O)CC[C@H](NC(=O)CCCCCCCCCCCCCCCCC(=O)O)C(=O)O)C(=O)O)C(=O)N[C@@H](CCC(N)=O)C(=O)NC(C)(C)C(=O)N[C@@H](CC(N)=O)C(=O)N[C@@H](Cc1ccccc1)C(=O)N[C@H](C(=O)N[C@@H](CC(N)=O)C(=O)N[C@@H](Cc1c[nH]c2ccccc12)C(=O)N[C@@H](CC(C)C)C(=O)N[C@@H](CC(C)C)C(=O)N[C@@H](C)C(=O)N[C@@H](CCC(N)=O)C(=O)N[C@@H](CO)C(=O)NCC(=O)O)C(C)C [Compound 46] (H-[NMeY][Aib]EGTFISDYSIALDR[Aib]K([AEEA-AEEA-γGlu-γGlu-C18 diacid])Q[Aib]NFVNWLLAQSG-OH) |  | ≥ 15 | ≥ 30
